Test results reported in article PMC8401923, “Processing Impact on In Vitro and In Vivo Performance of Solid Dispersions—A Comparison between Hot-Melt Extrusion and Spray Drying” (Pharmaceutics, 2021).
Converted amounts (≈) assume the structure as drawn. Where two headings read alike, the source gives them in different places.

Columns and labels:
Format in all cases: physicochemical
[1] = Solubility of crystalline posaconazole
pKa of posaconazole = test: pKa of posaconazole
From the text: (§1) Table 1 Physical/chemical properties of posaconazole.

XPS surface composition = settings: 25% bulk drug loading with HPMCAS
Protocol: X-ray Photoelectron Spectroscopy (XPS). XPS experiments were performed using a Physical Electronics Quantera SXM instrument equipped with a monochromatic Al Kα x-ray source (hν = 1486.6 eV) and a concentric hemispherical analyzer. Charge neutralization was performed using low energy (1.5 eV) electrons and low energy (8 V) Ar^+ ions. The binding energy axis was calibrated using sputter cleaned Cu foil (Cu 2p3/2 = 932.62 eV) and Au foil (Au 4f7/2 = 83.96 eV). Spectra were charge references to C-(C,H) at 284.8 eV. All measurements were performed at an electron takeoff angle of 45° relative to the sample platen plane.

Log P of posaconazole = test: Log P of posaconazole
From the text: as §1

[2] = Two-stage biorelevant dissolution (SGF then FaSSIF)
Protocol: Simulated gastric fluid (SGF) was made with sodium chloride (34.2 mM), and the pH was adjusted to 1.8 with 12N HCl. The 2× fasted state simulated intestinal fluid (FaSSIF) was prepared using simulated intestinal fluid (SIF) powder (purchased from Biorelevant.com Ltd., London, UK), sodium phosphate monobasic monohydrate (114.5 mM), and sodium chloride (423.7 mM), and the pH was adjusted to 6.9 [35, 36].
Two-stage dissolution was performed on the solid dispersion powder at the dose relevant level of drug quantity using the Distek Model 2500 dissolution system (North Brunswick, NJ USA) with USP Apparatus 2 (paddles) setup. The paddles were operated at 100 rpm, and the dissolution medium was maintained at 37 ± 0.5 °C. The SGF medium of 250 mL was added for the first stage, and then FaSSIF medium of 250 mL at 30 min was added for the second stage to achieve the correct pH, ionic strength, and bile salt levels for FaSSIF. The time points that the sample was withdrawn were indicated by the dots in the dissolution plots. At each time point, ~2 mL was sampled and syringe-filtered (0.45 µm PVDF filter). The filtrate was diluted with diluent (water:acetonitrile = 1:1 v/v) and analyzed by an Agilent HPLC (Santa Clara, CA, USA) with a UV detector. […]

Question: For `CC[C@@H]([C@H](C)O)n1ncn(-c2ccc(N3CCN(c4ccc(OC[C@@H]5CO[C@@](Cn6cncn6)(c6ccc(F)cc6F)C5)cc4)CC3)cc2)c1=O` [posaconazole], which solubility ([1]; fasted state simulated intestinal fluid (FaSSIF), fassif, read-out: Solubility) is on record?
Answer: Its solubility is 2 µg/mL (≈ 2.85 µM).

Question: What about the solubility ([1]; pH 1, read-out: Solubility) of the same compound?
Answer: Its solubility is 790 µg/mL (≈ 1130 µM).

Question: And the solubility ([1]; pH 3, read-out: Solubility)?
Answer: The solubility was 3 µg/mL (≈ 4.28 µM).

Question: And the solubility ([1]; pH 7, read-out: Solubility)?
Answer: The solubility was 1 µg/mL (≈ 1.43 µM).

Question: What about the solubility ([1]; simulated gastric fluid (SGF), pH 1.8, read-out: crystalline solubility) of the same compound?
Answer: Its solubility is ~790 µg/mL (≈ 1130 µM).

Question: What about the pKa (pKa of posaconazole; piperazine N) of the same compound?
Answer: The pKa was 3.6.

Question: And the pKa (pKa of posaconazole; triazole N)?
Answer: Its pKa is 4.6.

Question: What about the “~API Loading on Surface Based on F and N” value (XPS surface composition) of the same compound?
Answer: Its value is ~100%.

Question: And the logP (Log P of posaconazole)?
Answer: Its logP is 5.

Question: And the “drug release in SGF stage (in words)” value ([2]; SGF pH 1.8, first 30 min)?
Answer: Its value is “the percent dissolved is high”.

Question: What about the “drug release in FaSSIF stage (in words)” value ([2]; second stage, FaSSIF) of the same compound?
Answer: Its value is “significantly drops to approximately the crystalline solubility”.
